{
  "source": "patent US20220057378A1",
  "about": "“MICROBIAL MICROFLUIDIC BIOSENSOR” (priority 2015, published 2022)",
  "key": {"[1]": {"tested_on": "E. coli MG1655 containing pRS18", "experiment": "on-chip step-induction of arsenic-sensing plasmid pRS18 (GFP)", "format": "cell-based", "details": "pRS18 in E. coli MG1655, M9 + 0.4% glucose", "text": "Induction of pRS18, an arsenic-sensing plasmid, was first tested in the microfluidic device. A recombinant strain of E. coli MG1655 containing pRS18 was vacuum loaded into the microfluidic device, grown to confluence, and step-induced with sodium ortho-arsenite (Na3AsO3) in M9 minimal medium supplemented with 0.4% glucose. Images were collected using a Nikon Ti microscope with 4× objective magnification. Step induction was executed using the gravity-driven “Dial-AWave” automated flow control system to mix two medium sources in a defined ratio. The cells were sequentially exposed to arsenic concentrations of 0 μM, 0.1 μM, 0.5 μM, and 1 μM in 6-h windows, allowing time for the cells to respond to each concentration increase. […] We believe that the rise in GFP expression prior to the induction step is due to a small leak of inducer into the medium stream. Average fluorescence within the trapping regions of the images as well as arsenic concentration is plotted over time in FIG. 47C."}, "As7 with luxCDABE operon": {"tested_on": "As7 with luxCDABE operon", "experiment": "plate reader induction of arsenic sensor, Lux reporter", "format": "cell-based", "details": "Tecan plate reader", "procedure": "Luminescent reporters. […] In FIG. 8, we compare these reporters driven by an arsenic-responsive promoter, where the induction response was measured side-by-side using a Tecan plate reader.\n(§1) For comparison, the arsenic concentration used for testing the GFP construct in a microfluidic device was 130 nM, or 0.13 μM. Thus, replacing GFP with Lux promises to greatly increase the sensitivity of the biosensor.\n(§2) The arsenic sensor construct As7 was modified to replace the gfp gene with the luxCDABE operon, and relative induction (fluorescence or luminescence) of the two constructs was tested side-by-side using a Tecan Infinite M200 Pro plate reader (see FIG. 38). […] In contrast, the GFP construct was sensitive to arsenic only above a concentration of 26 nM. For comparison, we were able to detect an arsenic concentration of 130 nM using the GFP construct in a microfluidic device. Thus, replacing GFP with Lux promises to greatly increase the sensitivity of the biosensor."}, "E. coli MG1655/As1": {"tested_on": "E. coli MG1655/As1", "experiment": "on-chip time-lapse induction of promoter construct (GFP, gill chip)", "format": "cell-based", "protocol": "(§4) For on-chip induction experiments, strains were loaded into the device and grown in M9 minimal medium with 0.4% glucose and 50 μg/ml spectinomycin (for plasmid maintenance) for 2 days in the absence of toxin. Cells were imaged under 4× brightfield and GFP fluorescence filters on an Olympus IX-81 microscope every 2 min for 6 h under these non-inducing conditions to generate a fluorescence baseline. The toxin was then introduced to induce GFP expression and the cells were imaged every 2 min for 6 h.\n(§5) To determine the response to toxin induction, the raw fluorescence images before and after induction were compared. The image stacks were analyzed using a custom ImageJ script to measure the average GFP signal over time for each cell trap. Any linear trend in the uninduced fluorescence data due to cell growth was subtracted from the data. In this manner, the dynamic signal-to-noise ratio (SNR) was calculated as: (current fluorescence−mean uninduced fluorescence)/(standard deviation of uninduced fluorescence).\n(§6) This microfluidic platform was then used to measure the response of several toxin responsive promoter constructs identified from the literature and synthesized by Transcriptic. […] Note that SNR values greater than 2 indicate a significant response."}, "E. coli MG1655/As3": {"tested_on": "E. coli MG1655/As3", "experiment": "on-chip time-lapse induction of promoter construct (GFP, gill chip)", "format": "cell-based", "text": "The on-chip time-lapse induction response of each promoter construct in this table can be seen in FIG. 36. In each figure panel, the moment of toxin introduction is represented as a step in the red trace."}, "As7 GFP construct": {"tested_on": "As7 GFP construct", "experiment": "arsenic detection with the GFP construct in a microfluidic device", "format": "cell-based", "procedure": "as §1, §2"}, "E. coli MG1655/Cr11": {"tested_on": "E. coli MG1655/Cr11", "experiment": "8-strain chip induction (fluorescence induction ratio)", "format": "cell-based", "details": "toxin at t=0, pure water at t=2 hours; chromium(VI) 0.5 μM", "text": "An overview of the sensor can be seen in FIG. 39. In order to acquire the large amount of data required to successfully train the classifier, five replicates of the fully self-contained device prototype were built, in which the microfluidic devices are mounted and imaged using custom-designed optics as shown in some embodiments herein (Milestone 6.9). The majority of the data for this project was acquired using a novel microfluidic device capable of housing eight different bacterial strains that receive media from a shared source. […] The design was expanded to house 18 strains and we have begun taking data with this new chip to provide larger datasets to the classifier. A detailed CAD drawing of this device can be seen in FIG. 56. The 18 cell trapping regions are vacuum-loaded from 18 downstream fluidic ports. Long, serpentine channels upstream of the trapping regions serve as fluidic buffer zones to prevent the cross-contamination of strains while loading. The toxin concentration is controlled dynamically by a peristaltic pump that mixes a water/toxin combination (representing the source water stream) with a concentrated medium stock.\nIn each panel, the time series data for the “on-target” responding strain is plotted in bold."}, "E. coli LABEC01/Cr5": {"tested_on": "E. coli LABEC01/Cr5", "experiment": "on-chip time-lapse induction of promoter construct (GFP, gill chip)", "format": "cell-based", "protocol": "as §4, §5, §6"}, "E. coli MG1655/Cd1": {"tested_on": "E. coli MG1655/Cd1", "experiment": "on-chip time-lapse induction of promoter construct (GFP, gill chip)", "format": "cell-based", "protocol": "as §4, §5, §6"}, "E. coli MG1655/Zn6": {"tested_on": "E. coli MG1655/Zn6", "experiment": "18-strain chip induction", "format": "cell-based", "details": "Zn6, Pb7, Pb8 in descending magnitude", "text": "(§3) In an embodiment herein, the toxin response data across 18 unique sensing strains were also collected using a new chip design that houses 16 E. coli strains and 2 B. subtilis strains. The B. subtilis NCIB 3610/Amm3 construct is a “lights-off” sensor, meaning that GFP production drops when ammonium is introduced, following a slight increase due to faster growth on this preferred nitrogen source. […] By combining these sensor responses, we can identify cobalt by the unique response of Pb7 alone and lead by the unique combination of Zn6, Pb7, and Pb8 responses."}, "E. coli MG1655/Pb8": {"tested_on": "E. coli MG1655/Pb8", "experiment": "18-strain chip induction", "format": "cell-based", "details": "Zn6, Pb7, Pb8 in descending magnitude", "text": "as §3"}, "E. coli MG1655/Pb7": {"tested_on": "E. coli MG1655/Pb7", "experiment": "18-strain chip induction", "format": "cell-based", "text": "as §3"}, "[2]": {"details": "0.13 μM arsenic, 6 h induction, SNR > 2 = significant response"}},
  "note": "Where “and” joins values, the source holds several entries; their conditions need not be identical. Identical values can stand only once.",
  "data": [
    {"compound": "[As]", "note": "[Arsenic]", "values": [
      {"measurement": "arsenic concentration detected on-chip (GFP)", "setting": "[1]", "value": "0.1 µM and 0.13 µM"},
      {"measurement": "arsenic concentration detected, Lux construct", "setting": "As7 with luxCDABE operon", "value": 0.2, "unit": "nM"},
      {"measurement": "SNR after 6 h", "setting": "E. coli MG1655/As1; [2]", "value": 20},
      {"measurement": "Concentration Sensed in Microfluidic Device", "setting": "E. coli MG1655/As1; arsR/parsR from E. coli plasmid, native RBS", "value": 0.13, "unit": "µM"},
      {"measurement": "SNR after 6 h", "setting": "E. coli MG1655/As3; [2]", "value": 33},
      {"measurement": "Concentration Sensed in Microfluidic Device", "setting": "E. coli MG1655/As3; arsR/parsR from E. coli genome, synthetic RBS", "value": 0.13, "unit": "µM"},
      {"measurement": "arsenic concentration detected, GFP construct in microfluidic device", "setting": "As7 GFP construct", "value": 130, "unit": "nM"}
    ]},
    {"compound": "[Cr+6]", "note": "[Chromium(VI)]", "values": [
      {"measurement": "GFP response of strain Cr11", "setting": "E. coli MG1655/Cr11", "value": "responding"},
      {"measurement": "SNR after 6 h", "setting": "E. coli LABEC01/Cr5; 5 μM chromium(VI), 6 h induction, SNR > 2 = significant response", "value": 5},
      {"measurement": "Concentration Sensed in Microfluidic Device", "setting": "E. coli LABEC01/Cr5; chrB/pchrB from O. tritici transposon, native RBS", "value": 5, "unit": "µM"}
    ]},
    {"compound": "[Cd]", "note": "[Cadmium]", "values": [
      {"measurement": "SNR after 6 h", "setting": "E. coli MG1655/Cd1; 0.04 μM cadmium, 6 h induction, SNR > 2 = significant response", "value": 17},
      {"measurement": "Concentration Sensed in Microfluidic Device", "setting": "E. coli MG1655/Cd1; cadC/pcadC from S. aureus plasmid, native RBS", "value": 0.04, "unit": "µM"}
    ]},
    {"compound": "[Pb]", "note": "[Lead]", "values": [
      {"measurement": "GFP response of strain Zn6", "setting": "E. coli MG1655/Zn6", "value": "respond sensitively"},
      {"measurement": "GFP response of strain Pb8", "setting": "E. coli MG1655/Pb8", "value": "respond sensitively"},
      {"measurement": "GFP response of strain Pb7", "setting": "E. coli MG1655/Pb7", "value": "respond sensitively"}
    ]},
    {"compound": "Mercury", "values": [
      {"measurement": "SNR after 6 h", "setting": "E. coli MG1655/Hg3; 0.1 μM mercury, 6 h induction, SNR > 2 = significant response", "value": 20},
      {"measurement": "Concentration Sensed in Microfluidic Device", "setting": "E. coli MG1655/Hg3; merR/pmerR from E. coli plasmid, synthetic RBS", "value": 0.1, "unit": "µM"}
    ]}
  ]
}
